Results published in publication PMC2777898, “CCR2 and CXCR4 regulate peripheral blood monocyte pharmacodynamics and link to efficacy in experimental autoimmune encephalomyelitis” (Journal of Inflammation (London, England), 2009).

Target: T1, CCR2 (Mus musculus, UniProt P51683)
T1 construct: membranes from Ba/F3 cells transfected with mouse CCR2
Experiment: […]-rhCCL2 radioligand displacement, SPA, on membranes in mouse plasma
Type: binding

T1 sequence (P51683 whole entry): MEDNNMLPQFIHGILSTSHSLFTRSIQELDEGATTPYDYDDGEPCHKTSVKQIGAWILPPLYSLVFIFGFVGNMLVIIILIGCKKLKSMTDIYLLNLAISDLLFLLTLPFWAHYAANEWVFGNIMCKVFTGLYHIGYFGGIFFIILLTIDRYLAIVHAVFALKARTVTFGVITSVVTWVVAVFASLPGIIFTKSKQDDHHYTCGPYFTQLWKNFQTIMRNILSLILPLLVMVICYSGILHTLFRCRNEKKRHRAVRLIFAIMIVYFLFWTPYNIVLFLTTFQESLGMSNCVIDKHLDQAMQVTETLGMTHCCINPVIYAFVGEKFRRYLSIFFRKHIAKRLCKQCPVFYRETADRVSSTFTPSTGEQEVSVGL

`CO[C@@H]1COCC[C@@H]1N[C@@H]1CC[C@@](C(=O)N2CCc3ncc(C(F)(F)F)cc3C2)(C(C)C)C1` [MK0812] was tested. Which IC50 did it give?
The IC50 was 19 nM.
